The record followed here is patent US7749316B2, “Water-based inks for ink-jet printing” (Kao Corporation, priority 2006, dated 2010).

The structures appear in SMILES notation.

The nature of series [1]: Surface tension of water containing nonionic organic compound. It is filed as physicochemical. As to conditions: 0.001 g of compound in 100 g of water, 25° C. From the text:
The lower limit of the surface tension is preferably 40 mN/m or more.

Series [2] in a line: Solubility of nonionic organic compound in water. As to conditions: for solubility in 100 g of water: in 100 g of water as measured at 25° C.; for Solubility of nonionic organic compound: saturated solubility in 100 g of water, 25° C.
Method: The solubility is expressed by a saturated solubility of the nonionic organic compound in 100 g of water. The stirring for the measurement was conducted within 1 h.

Take `CCCCCCCCC(O)CO` (centres unmarked) [1,2-decanediol]: in series [1], the “Surface tension of water containing nonionic organic compound” value (“Surface tension” below) is recorded as 55 mN/m. Also, the “solubility in 100 g of water” value in series [2] stood at 0.055 g.

For `CCCCCCC(O)CO` (centres unmarked) [1,2-octanediol], the “Surface tension” value in series [1] was 65 mN/m. Also, in series [2], the “solubility in 100 g of water” value is 0.20 g.

As for `CCCCC(CC)COCC(O)CO` (centres unmarked) [2-ethylhexyl glyceryl ether], the “Surface tension” value in series [1] came to 62 mN/m. Also, the “solubility in 100 g of water” value in series [2] came out at 0.15 g.

As to `CCCCCCCCCCC(O)CO` (centres unmarked) [PO-1, 1,2-Dodecanediol], the “Surface tension” value in series [1] was 47.1 mN/m. In series [2], the “solubility in 100 g of water” value stood at 0.001 g and the “Solubility of nonionic organic compound” value was 0.001 g/100 g.

Take `CCCCCCCCCCCC(=O)OCC(O)CO` (centres unmarked) [PO-2, Dodecanoic acid monoglyceride]: in series [1], the “Surface tension” value was determined as 65 mN/m. Besides, the “Surface tension” value in series [1] (listed as lauric acid monoglyceride) was 63 mN/m. For the same compound, in series [2], the “solubility in 100 g of water” value was 0.005 g and the “Solubility of nonionic organic compound” value is listed as 0.15 g/100 g.

With `CC(C)CCCCCCCOCC(O)CO` (centres unmarked) [PO-3, Isodecyl monoglyceryl ether], the “Surface tension” value in series [1] is listed as 57.8 mN/m. Besides, in series [2], the “solubility in 100 g of water” value is listed as 0.05 g and the “Solubility of nonionic organic compound” value is reported as 0.05 g/100 g.

In the case of `CCCCCCCCCC(=O)OCC(O)CO` (centres unmarked) [decanoic acid monoglyceride], in series [1], the “Surface tension” value is given as 65 mN/m.
